Our source for the melting point values is a melting point compilation (Tetko et al.; mined from patent text by program, amines drawn as free bases though some values may be those of a salt).

Broadly, the melting point is the temperature of the solid-liquid transition.

In turn, `Cc1sc(-c2ccccc2)nc1CCOc1ccc(C[C@@H](C(=O)O)n2cccc2)cc1` displayed a melting point of 157 to 158 °C.

As to `Cc1oc(-c2ccccc2)nc1COc1ccc(CCCC2OC(=O)NC2=O)cc1F` (stereo unspecified), the melting point lay within 180 to 181 °C.

Molecule `COc1c(N(C)C)cc(CC(C#N)=CNc2ccccc2)cc1N(C)C` displayed a melting point of 103 to 105 °C.

The molecule `CCC(O)(CC)c1ccc(-c2cccc(OCc3ccc(CO)c(CO)c3)c2C)cc1` gave a melting point of 117 to 118 °C.

Consider `CCCCCCCCc1ccc2nc(N)nc(N)c2c1C`, for which the melting point lay within 262 to 264 °C.

As for `NC(=O)CCn1c2ccc(O)cc2c2c3c(c(-c4ccccc4Cl)cc21)C(=O)NC3=O`, the melting point lay within 319 to 322 °C.

For `COc1ccc(S(=O)(=O)c2ccccc2C(C)C)cc1`, the melting point amounted to 100 °C.

For the molecule `CN1Cc2c(-c3nc(C4CC4)no3)ncn2-c2cccc(Cl)c2C1=O`, the melting point fell in the range of 183 to 184 °C.

On to `CC[C@@]12C[C@H](N)[C@](O)(c3ccccc3)C[C@H]1CCc1cc(O)ccc12`, for which the melting point lay in the range of 209 to 210 °C.

`CCCNC(=O)C1(CCC)c2ccccc2Sc2ccccc21`: the melting point was 132 to 133 °C.

On to `CC(CN1CCN(CCc2ccc(C(=O)O)cc2)CC1)Oc1ccc(C(=O)O)cc1` (stereo unspecified), for which the melting point is 270 to 271 °C.

The molecule `O=C(CCCCc1ccccc1)Nc1ccc(C(=O)NO)cc1` had a melting point of 189 to 191 °C.

Regarding `C=CC(=O)NCNC(=O)CCS(=O)(=O)CCCl`, the melting point was in the range of 186 to 187 °C.

Turning to `COc1cccc2c(Cc3nc(CCc4ccccc4)co3)coc12`, the melting point is 69 to 70 °C.

With `COc1cc(Nc2c(C#N)cnc3cc(C#Cc4ccccn4)sc23)c(Cl)cc1Cl`, the melting point was in the range of 237 to 239 °C.

As for `O=C1C(=O)N(CC(F)(F)F)c2ccccc21`, the melting point was in the range of 161 to 163 °C.

`CCc1ccc2c(c1)C=Cc1cc(CC)ccc1C2c1cn(Cc2nc(C(=O)O)cs2)c(=O)[nH]c1=S`: the melting point lay in the range of 162 to 165 °C.

In turn, `CCCn1c(=O)c2[nH]c([C@@H](C)Cc3ccccc3)nc2n(CCC)c1=O` had a melting point of 141 to 142 °C.

`Cc1ccc2c(c1)S/C(=C(/N)c1ccccc1)C2=O` gave a melting point of 166 to 167 °C.

The molecule `CN(C)C(=O)N1CCC(Nc2ncc3ncnc(Nc4ccc(F)c(Cl)c4)c3n2)CC1` had a melting point of 187 to 188 °C.

Turning to `CCN(CC)CCNC(=O)c1cc2cc(I)ccc2[nH]1`, the melting point was in the range of 208 to 210 °C.

Turning to `CSc1ccccc1-c1ccc(C(=O)N2Cc3ccc(C(=O)NCc4cccnc4)n3Cc3ccccc32)cc1`, the melting point fell in the range of 172 to 175 °C.

As for `Cc1cc(Cl)ccc1Cn1nc(C(C)(C)O)c2ccccc21`, the melting point fell in the range of 72 to 74 °C.

In turn, `C#CCOCCOC(=O)COc1ccc(Cl)c2cccnc12` registered a melting point of 53 °C.

As for `c1csc(-c2cn([C@H]3CN4CCC3CC4)nn2)c1`, the melting point was 137 °C.

As for `O=C(OCc1ccccc1)N1CCc2c(sc3nc(CN4C(=O)CCC4=O)c(Cl)c(-c4ccc(OCc5ccccc5)cc4)c23)C1`, the melting point fell in the range of 238 to 239 °C.

In the case of `COC(=O)c1ccc(C=CC(=O)C=Cc2ccc(C(=O)OC)cc2)cc1`, the melting point lay in the range of 206 to 210 °C.

Molecule `CCC1COC(=NO)C(=O)N1C` (stereo unspecified) returned a melting point of 168 to 170 °C.

For `O=C(N[C@H](Cc1ccc(F)cc1)[C@@H](O)c1ccc(F)cc1)c1cccc2ccccc12` (racemic), the melting point is 199 to 200 °C.

As to `CS(=O)c1ccc(C(=O)CCCCCC#N)cc1` (stereo unspecified), the melting point was 58.5 to 60.5 °C.

`O=C(c1ccc(Cl)cc1)c1cnc2ccc(Cl)cc2c1Cl` had a melting point of 170 °C.

The molecule `CCC(NS(=O)(=O)c1ccc(N2CCOCC2)cc1)C(=O)O` (stereo unspecified) had a melting point of 163 to 165 °C.

Molecule `Cc1cc(Cl)cc(C(=O)c2[nH]c(=O)[nH]c(=O)c2C(C)C)c1` gave a melting point of 254 to 255 °C.

With `CCCc1c(C(=O)C(C)C)c2ccc(C(=O)O)cc2n1Cc1ccc(F)cc1Cl`, the melting point lay in the range of 243 to 244 °C.

With `O=C(O)c1cn(-c2cccc(F)c2)c2cc(Cl)ccc2c1=O`, the melting point lay within 284 to 286 °C.

For the molecule `O=C1CCCC(=O)C1Br`, the melting point is 153 to 154 °C.

`CCCCCCCCCCCCCCCCNc1ccc(C(=O)OCCCCO)cc1` had a melting point of 61 to 63 °C.

On to `CCCCC1(C2CCCC2)Cc2cc(OCC(=O)O)c(Cl)c(Cl)c2C1=O` (stereo unspecified), for which the melting point fell in the range of 173 to 174 °C.

Turning to `Cc1ccc(OCCCCCOc2ccc3ccc(=O)oc3c2)cn1`, the melting point fell in the range of 101 to 102 °C.

Molecule `CN1CCN(c2cnn(C)c(=O)c2C=NO)CC1` showed a melting point of 168 to 169 °C.

In the case of `O=C(O)c1ccc2ccc(C(F)(F)F)nc2c1O`, the melting point lay within 209 to 211 °C.

As to `CC(=O)OCC1OC(Oc2nc[nH]c2C(N)=O)C(OC(C)=O)C1OC(C)=O` (stereo unspecified), the melting point fell in the range of 132 to 134 °C.

Take `Cc1ccc(S(=O)(=O)OCC2Cc3c(C)c(Cl)cc(C(C)C)c3O2)cc1` (stereo unspecified): the melting point was in the range of 103 to 105 °C.

`CN(C)Cc1c(-c2ccccc2)oc2c(CO)cccc2c1=O` registered a melting point of 150 °C.

`O=C1CC(c2ccccc2)C(=S)N1c1ccc(Cl)cc1` (stereo unspecified) gave a melting point of 153 to 155 °C.

The molecule `C=CC[C@@H](C(=O)N[C@H](C(=O)N[C@H](C)c1ccccc1)C(C)(C)C)[C@@H]1OC(C)(C)OC1=O` yielded a melting point of 178 to 180 °C.

`CCNC(=O)n1nc(Oc2ncc(C(F)(F)F)cc2Cl)c(Br)c1C` showed a melting point of 123 to 125 °C.

In turn, `CC(=O)N(C)c1cc2c(nc(C)n2C)c(O)c1CN(C)C` gave a melting point of 181 to 184 °C.

As for `O=C(c1ccc(O)cc1)c1cc(Cl)cc(Cl)c1`, the melting point worked out at 183 °C.

Regarding `O=Cc1[nH]cc2c1OCCO2`, the melting point amounted to 147 °C.

Consider `CC1CC(=O)C=C2CCC3C4CCC(=O)C4(C)CCC3C21C` (stereo unspecified), for which the melting point was 154 °C.

`COc1cccn2c(=O)c(CCOS(C)(=O)=O)c(C)nc12`: the melting point turned out to be 180 °C.

The molecule `CSc1ccc(CSc2nnc(-c3ccc4[nH]ncc4c3)o2)cc1C(F)(F)F` returned a melting point of 184 to 185 °C.

`COc1ccc2c(c1)C(=O)C(Cc1ccccc1)CN2S(=O)(=O)c1ccc(C)cc1` (stereo unspecified) registered a melting point of 101 to 103 °C.

As to `CC(C)(C)OC(=O)/C(=C/c1ccccc1)C(=O)c1cc2ccccc2cc1O`, the melting point lay in the range of 132 to 135 °C.

Take `O=C(c1cnc2ccccc2c1)N1CCC(c2ccccc2)=N1`: the melting point fell in the range of 107 to 112 °C.

In turn, `O=C(Nc1cccc(F)c1)c1ccccn1` yielded a melting point of 74 to 78 °C.

`CCOC(=O)c1oc(SC)c2c1CCC(Br)C2=O` (stereo unspecified) showed a melting point of 130 to 131 °C.

As for `CCSC(=O)OCOC(=O)c1ccco1`, the melting point was in the range of 37.2 to 38.4 °C.

`CC1(C)CNc2nc(-c3ccncc3)cc(=O)n2C1` registered a melting point of 152 to 154 °C.

With `O=C(COc1ccc(Cl)cc1Cl)C(=C1SCCCN1Cl)[N+](=O)[O-]`, the melting point fell in the range of 103 to 105 °C.

Turning to `COc1cccc(Sc2ccnc(Nc3cc(OC)c(OC)c(OCCN4CCCC4)c3)n2)c1`, the melting point was 120 to 121 °C.

Turning to `COc1nnc(SCC2=C(C(=O)O)N3C(=O)C(NC(=O)Cc4csc(=O)s4)C3SC2)s1` (stereo unspecified), the melting point is 208 °C.

For `CCN1c2ncc(COc3cccc4[nH]ccc34)cc2C(=O)N(C)c2ccc(Cl)nc21`, the melting point is 183 to 185 °C.

The molecule `CN(C)C(=O)NC1CCCc2sccc21` (stereo unspecified) returned a melting point of 117 to 120 °C.

Molecule `Oc1ccc(C(F)(F)C(F)(F)OC(F)(F)C(F)(F)OC(F)(F)C(F)(F)c2ccc(O)cc2)cc1` yielded a melting point of 118 to 120 °C.

Consider `Cc1oc(-c2ccc(C(F)(F)F)cc2)nc1-c1cccc(-c2ccc(OCC(=O)O)cc2)c1`, for which the melting point was 178 to 179 °C.

`CCc1cc(-c2ccc(C(C)=O)cc2)ccc1OC` yielded a melting point of 69 to 72 °C.

The molecule `CC(=O)c1ccc2c(c1)C(c1ncccc1C)CC(C)(C)O2` (stereo unspecified) yielded a melting point of 87 to 88 °C.

The molecule `Cn1ncnc1COc1nn2c(-c3ccc(F)cc3)nnc2cc1-c1ccsc1` came in with a melting point of 268 to 269 °C.

On to `O=C(Nc1ccc(C(=O)N2Cc3cccn3-c3ccccc32)cc1)c1cccc(Cl)c1Cl`, for which the melting point lay in the range of 230 to 240 °C.

`Nc1c(CC(=O)N2CCC(O)CC2)cccc1Oc1ccccc1F` returned a melting point of 160 to 161 °C.

`COCn1nc(Nc2cnccn2)c2cc(-c3ncccc3Cl)cc(OCCc3ccccn3)c21`: the melting point is 120 to 122 °C.

On to `O=C1OC(=O)c2c(C(F)(F)F)c3ccccc3c3cccc1c23`, for which the melting point was 235 to 237 °C.

Regarding `CC1(C)OC(=S)Nc2ccc(-c3csc(C#N)c3)cc21`, the melting point lay in the range of 242 to 243 °C.

The molecule `CC(C)(C)OC(=O)[C@@H]1CCCN1C(=O)C1CCCC1SC(=O)c1ccccc1` (stereo partly specified) showed a melting point of 68 to 70 °C.

Molecule `Cc1cc2cc(CN3CCCC3)cnc2cc1NC(=O)c1ccc(-c2ccco2)cc1` returned a melting point of 154 °C.

`Cn1c(CC#N)ccc1C(=O)c1ccc(N)cc1` displayed a melting point of 137 to 142 °C.

In turn, `COC(=O)c1ccc(NN)c(Cl)c1` had a melting point of 120 °C.

In the case of `O=C1NCCN1CC#CCn1ccnc1`, the melting point lay in the range of 97 to 101 °C.

With `Cc1ccc(C(O)c2nc3c(cc2C)CCCCC3)cc1` (stereo unspecified), the melting point lay within 143 to 145 °C.

`O=C1CCN2C(=O)c3cccc(NC(=O)Nc4ccccn4)c3C2C1` (stereo unspecified) gave a melting point of 254 °C.

`O=c1nc(-c2ccccc2)c2cc3c(cc2[nH]1)OCO3` yielded a melting point of 351 to 354 °C.

`N#CC(C#N)=C1N(CCCN2CCCCC2)CCN1C1CCN(C(=O)C2CC2)CC1` showed a melting point of 131 to 133 °C.

As to `O=C1CCC(c2c[nH]c3ccc(F)cc23)CC1`, the melting point fell in the range of 112 to 114 °C.

For `C#CCN(c1ccc(C(=O)OC(C)(C)C)cc1)C1CCc2cc3nc(COC(=O)C(C)(C)C)[nH]c(=O)c3cc21` (racemic), the melting point came out at 134 °C.

`COc1c(Cl)cc(CNc2ccccc2[N+](=O)[O-])cc1Cl`: the melting point is 128 °C.

`O=C1c2ccccc2C(=O)N1Cc1ccc(I)cc1Cl` displayed a melting point of 140 to 142 °C.

Take `CCOC(=O)c1ccc(COc2cccc(NC(C)=O)c2C=O)cc1`: the melting point lay within 116 to 119 °C.

For the molecule `COC(=O)CC(c1ccccc1)N1C(=O)c2ccccc2C1=O` (stereo unspecified), the melting point lay in the range of 75 to 76 °C.

For `CCOC(=O)Nc1cccc2c1CN(C)CC2c1ccc(Cl)cc1` (stereo unspecified), the melting point was 155 °C.
